The source of these data is PMC9154810, “Selective inhibition of carbonic anhydrase IX by sulphonylated 1,2,3-triazole incorporated benzenesulphonamides capable of inducing apoptosis” (Journal of Enzyme Inhibition and Medicinal Chemistry, 2022).

Each structure is given as a SMILES string. Read-outs that look alike come from different tables or passages of the source.

Data set [1] is described as follows: MTT assay, cell viability. Format: cell-based. The conditions noted are these: goat (Capra hircus), primary goat testicular cells, mean ± SEM, read-out: percent cell viability. On the procedure:
(§1) Goat (Capra hircus) testicular tissues were procured from slaughterhouses of Chandigarh (30°43′ N, 76°12′ E) and around Kurukshetra (29°6′ N, 76°50′ E) in 0.9% normal saline at 4 °C. The testicular cells/tissues were cultured in vitro in media-TCM199 and exposed to 10 µM concentration of given compounds for 6 h in a CO2 incubator with 5% CO2 and 95% humidity at 38 °C temperature.[22]^,[23]
Testicular cells were cultured in 96-well plates. Wells for blank control were without any cells and contained MTT [3-(4,5-dimethylthiazol-2-yl)-2,5-diphenyl-tetrazolium-bromide)], culture medium, and DMSO. The remaining wells were seeded with testicular cells, which were treated with given compounds at 10 µM concentration for 6 h. Post treatment, 10 µL of MTT stock solution was added to each well, and the reaction mixture was incubated for 2 h. After that 200 µL of DMSO was added in each well, followed by shaking for 10 min. Absorbance of reaction mixture was taken at 470 nm.
On the technique in general: Tetrazolium dyes change colour on reduction, which living cells bring about.

The test system of the next data set is testicular cells. Put plainly: EB/AO differential staining, apoptosis detection and quantification. Format: cell-based, Goat (Capra hircus). The settings on record: 10 µM, 6 h, mean ± SEM; control 7.33 ± 0.33. How it is done:
as §1
Ethidium bromide and acridine orange (EB/AO) staining was used to determine the cyto-genotoxic nature of given compounds in testicular cells.[25] Briefly, the testicular cell suspension prepared from the treated testicular tissue was mixed with equal volume of EB/AO differential stain on a glass slide and covered with a coverslip. Observation and quantification of apoptotic cells were done with fluorescence microscope (Olympus, Japan) using filters of 500–525 nm. Cells appearing bright green were marked as normal healthy cells, while cells displaying orange-red fluorescence were marked as apoptotic.

For the next data set, the target named is hCA I (Homo sapiens, UniProt P00915). Put plainly: stopped-flow CO2 hydrase assay, hCA I.
Chain of hCA I (P00915 whole entry): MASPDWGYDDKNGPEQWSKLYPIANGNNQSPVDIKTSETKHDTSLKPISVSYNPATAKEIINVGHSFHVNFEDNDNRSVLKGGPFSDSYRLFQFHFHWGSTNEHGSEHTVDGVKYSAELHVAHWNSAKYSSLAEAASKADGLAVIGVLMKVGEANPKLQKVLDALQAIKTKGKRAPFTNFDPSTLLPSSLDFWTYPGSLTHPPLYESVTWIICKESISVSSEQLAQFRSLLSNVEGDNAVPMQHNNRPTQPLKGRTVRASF
For another data set, the target named is hCA II (Homo sapiens, UniProt P00918). Put plainly: stopped-flow CO2 hydrase assay, hCA II.
In another data set the target is hCA IV (Homo sapiens, UniProt P22748). Put plainly: stopped-flow CO2 hydrase assay, hCA IV.
Chain of hCA IV (P22748 19-312): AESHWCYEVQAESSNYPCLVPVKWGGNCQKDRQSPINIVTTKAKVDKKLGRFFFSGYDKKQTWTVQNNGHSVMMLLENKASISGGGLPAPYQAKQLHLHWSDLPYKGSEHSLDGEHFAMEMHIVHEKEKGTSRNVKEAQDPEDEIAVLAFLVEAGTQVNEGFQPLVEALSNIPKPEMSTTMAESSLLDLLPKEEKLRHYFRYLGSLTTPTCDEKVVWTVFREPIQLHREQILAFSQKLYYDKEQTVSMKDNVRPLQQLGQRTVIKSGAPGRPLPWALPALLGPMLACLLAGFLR
For a further data set, the target named is hCA IX (Homo sapiens, UniProt Q16790). Put plainly: stopped-flow CO2 hydrase assay, hCA IX. The settings on record: for Selectivity index I/IX: ratio KI hCA I / KI hCA IX; for Selectivity index II/IX: ratio KI hCA II / KI hCA IX.
Where [2] appears, read: mean from three assays, stopped-flow technique, errors ± 5–10%.

Text for hCA II: (§2) An Sx.18Mv-R Applied Photophysics (Oxford, UK) stopped-flow instrument was used to assay the catalytic activity of various CA isozymes for CO2 hydration reaction.[21]
Text for hCA IV: as §2
Text for hCA IX: as §2

In general, viability refers to the share of living cells, or the viability signal relative to a control. The melting point is the temperature, or range, at which the solid turns liquid. What is called Ki is the dissociation constant of the complex between target and ligand, obtained from inhibition or displacement. Low readings indicate a stronger hold on the target, high ones a looser hold on the target. In the case of `NS(=O)(=O)c1cccc(-n2nnc(S(=O)(=O)c3ccccc3)c2-c2ccc(Cl)cc2)c1` [Compound 10d, 3-(5-(4-chlorophenyl)-4-(phenylsulphonyl)-1H-1,2,3-triazol-1-yl)benzenesulphonamide], the melting point was in the range of 123 to 125 °C. For the same compound, the viability at 6 h, 10 µM in data set [1] turned out to be 32 ± 6.92%. This compound also yielded a percent apoptosis with testicular cells of 35.00 ± 1.15%. The compound also returned a Ki on hCA I (setting [2]) of 696 nM. The Ki at hCA II was found to be 58.4 nM. For the same compound, the affinity on hCA IV corresponds to a Ki of 91.8 nM. Moreover, at hCA IX, the Ki was determined as 16.4 nM, the “Selectivity index I/IX” value came out at 42.42 and the “Selectivity index II/IX” value came to 3.56.

As for `NS(=O)(=O)c1ccc(-n2nnc(S(=O)(=O)c3ccccc3)c2-c2ccc(Br)cc2)cc1` [Compound 9e, 4-(5-(4-bromophenyl)-4-(phenylsulphonyl)-1H-1,2,3-triazol-1-yl)benzenesulphonamide], the melting point was 198 to 200 °C. Besides, the Ki at hCA I (setting [2]) is 7840 nM. On hCA II, this compound displayed a Ki of 220 nM. The affinity at hCA IV corresponds to a Ki of 801 nM. Also, at hCA IX, the inhibition constant Ki came out at 30.1 nM, the “selectivity for hCA IX over hCA I” value is reported as “more than 100 fold”, the “Selectivity index I/IX” value amounted to 260.40 and the “Selectivity index II/IX” value was found to be 7.32.

As for `COc1ccc(-c2c(S(=O)(=O)c3ccccc3)nnn2-c2cccc(S(N)(=O)=O)c2)cc1Br` [Compound 10h, 3-(5-(3-bromo-4-methoxyphenyl)-4-(phenylsulphonyl)-1H-1,2,3-triazol-1-yl)benzenesulphonamide], the melting point lay in the range of 231 to 233 °C. In addition, the viability at 6 h, 10 µM in data set [1] is 46.7 ± 4.8%. In the data set with testicular cells, this compound yielded a percent apoptosis of 29.33 ± 1.45%. Further, on hCA I, affinity was put at a Ki of 8030 nM. Further, the Ki on hCA I (setting [2]) worked out at 8030 nM. This compound also returned a Ki on hCA II of 649 nM. At hCA IV, this compound came in with a Ki of 6050 nM. On hCA IX, the Ki was 22.8 nM, the “selectivity for hCA IX over hCA I” value is “more than 100 fold”, the “Selectivity index I/IX” value was determined as 352.32 and the “Selectivity index II/IX” value turned out to be 28.45.
